Assay results: article PMC10641814 (Journal of Medicinal Chemistry, 2023)
Where two headings read alike, the source gives them in different places.

Tests used:
[1] = biological target: serotonin transporter SERT (Homo sapiens, UniProt P31645); assay: SERT binding ([3H]-imipramine), Eurofins
Excerpt: (§1) The results were expressed as the %
(§2) www.eurofinsdiscovery.com.

[2] = Preliminary pharmacokinetics in male Wistar rats, plasma and brain; type: in vivo; details: rat; for MRT: read-out: MRT mean residence time (converted)
dopaminergic D3R = dopaminergic D3R (Homo sapiens, UniProt P35462); assay: D3R binding ([3H]-methylspiperone), Eurofins; details: read-out: dopamine D3 % inhibition at 1 microM
Sequence of dopaminergic D3R (P35462 whole entry): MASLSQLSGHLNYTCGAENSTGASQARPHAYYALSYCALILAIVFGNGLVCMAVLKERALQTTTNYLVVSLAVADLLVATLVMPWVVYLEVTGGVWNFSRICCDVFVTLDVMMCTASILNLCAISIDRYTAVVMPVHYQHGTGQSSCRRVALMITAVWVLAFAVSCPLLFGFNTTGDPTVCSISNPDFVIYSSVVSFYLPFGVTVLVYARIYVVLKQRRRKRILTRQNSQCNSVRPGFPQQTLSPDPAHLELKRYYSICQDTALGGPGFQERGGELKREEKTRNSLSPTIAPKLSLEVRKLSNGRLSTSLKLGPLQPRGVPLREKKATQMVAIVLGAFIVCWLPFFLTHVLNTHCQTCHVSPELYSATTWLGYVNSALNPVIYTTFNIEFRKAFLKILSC
Excerpt: as §1, §2

5-HT2AR = 5-HT2AR (Homo sapiens, UniProt P28223); assay: 5-HT2AR binding ([3H]-ketanserine), Eurofins; details: read-out: serotonin 5-HT2A % inhibition at 1 microM
Sequence of 5-HT2AR (P28223 whole entry): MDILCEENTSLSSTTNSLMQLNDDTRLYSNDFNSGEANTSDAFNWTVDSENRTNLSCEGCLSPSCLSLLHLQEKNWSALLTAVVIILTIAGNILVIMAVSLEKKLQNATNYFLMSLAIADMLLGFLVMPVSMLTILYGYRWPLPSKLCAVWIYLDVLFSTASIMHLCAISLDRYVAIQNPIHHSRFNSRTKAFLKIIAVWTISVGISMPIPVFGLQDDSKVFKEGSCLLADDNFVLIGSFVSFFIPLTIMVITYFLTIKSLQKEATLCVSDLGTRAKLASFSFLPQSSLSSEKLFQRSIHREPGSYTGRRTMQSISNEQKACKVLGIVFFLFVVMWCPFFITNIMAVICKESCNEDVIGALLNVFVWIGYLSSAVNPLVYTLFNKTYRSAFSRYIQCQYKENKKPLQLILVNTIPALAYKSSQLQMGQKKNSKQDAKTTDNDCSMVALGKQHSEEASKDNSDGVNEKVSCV
Excerpt: as §1, §2

5-HT2CR = biological target: T1, 5-HT2CR (Homo sapiens, UniProt P28335); assay: 5-HT2CR binding ([3H]-mesulergine), Eurofins; details: read-out: serotonin 5-HT2C % inhibition at 1 microM
T1 sequence (P28335 33-458): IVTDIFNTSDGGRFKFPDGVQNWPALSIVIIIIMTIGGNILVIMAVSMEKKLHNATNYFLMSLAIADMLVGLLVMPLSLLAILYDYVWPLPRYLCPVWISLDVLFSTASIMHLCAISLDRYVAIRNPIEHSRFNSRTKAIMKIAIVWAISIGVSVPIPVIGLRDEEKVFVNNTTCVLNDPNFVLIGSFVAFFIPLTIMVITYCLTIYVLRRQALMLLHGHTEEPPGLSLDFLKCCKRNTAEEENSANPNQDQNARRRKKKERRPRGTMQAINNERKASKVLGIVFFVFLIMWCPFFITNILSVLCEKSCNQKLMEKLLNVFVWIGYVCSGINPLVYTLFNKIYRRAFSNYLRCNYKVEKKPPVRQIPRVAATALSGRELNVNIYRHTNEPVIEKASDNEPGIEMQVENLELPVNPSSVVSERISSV
Excerpt: as §1, §2

[3] = system: oAβ25–35-induced memory deficits in rats; assay: oAβ25–35-induced memory deficits in T-maze test in rats; type: in vivo, rat
Description: For the AD model, adult male Sprague–Dawley rats (Janvier Lab., France) weighing 260–280 g (8 weeks) at the beginning of the experiments were housed 1 week before experiments in a standard animal facility of the University of Montpellier (CECEMA, registration number E34-172-23) (12/12 h light/dark cycle with lights on at 07:00; 21 ± 1 °C, food and water ad libitum). All experiments, including sacrifices, were performed in conscious rats between 09:00 and 12:00, during the diurnal period of the circadian rhythm. Male has been preferred over female because the latter may present a confounding factor of the estrous cycle, a parameter that needs to be systematically controlled. Animal procedures were conducted in strict adherence to the European Union Directive of 2010 (2010/63/EU). The National French Animal Welfare Committee and the local committee at the University of Montpellier approved all protocols (authorization: CEEA-LR-12160). All efforts were made to minimize the number of animals used, potential pain, suffering, and distress.
As previously detailed,[37],[64] to induce the acute model of AD (oAβ25–35 model), rats were divided into three groups. One group had no surgery (Naive group), a second set of animals received an intracerebroventricular (icv) injection of incubated scrambled peptide (negative control groups—10 μg/rat—Sc), and a third set received an icv injection of oAβ25–35 (AD groups—10 μg/rat—Aβ). The animals were anesthetized with an intraperitoneal (ip) injection of a mixture of ketamine and xylazine (80 and 10 mg/kg b.w., respectively). Scrambled peptide and oAβ25–35 were injected directly into the lateral ventricles at a rate of 2 μL/min using a David-Kopf stereotaxic apparatus (coordinates of injection: AP −1 mm, L ±1.5 mm, DV −3.5 mm).
1—A curative approach: This treatment was started 1 week after the induction of amyloid toxicity (icv injection of oAβ25–35) and consisted of 2 ip injections (1.5 mg/kg per injection) per day for 1 week. On day 14, animals were subjected to a behavioral memory test (T-maze) and sacrificed on day 15 by decapitation.
2—A preventive approach: This treatment was started at the same time as the induction of amyloid toxicity and consisted of implanting ip, and during the same anesthetic procedure necessary for the icv injection of oAβ25–35, an osmotic pump (Alzet-EML2, Charles-River, France) which continuously delivered the molecules for 1 week at the dose of 3 mg/kg/day. On day 7, animals were submitted to a behavioral memory test (T-maze) and sacrificed on day 8 by decapitation.
As previously reported, the T-maze test was used to rapidly assess cognitive ability in rats, especially the short-term memory deficits, when performed in two successive sessions.[37],[38],[64],[65] The T-maze consisted of two short arms (A and B), extending from a longer alley (C) and enclosed with high walls. The test involved two trials, separated by 1 h. During the training session, one short arm (B) was closed. Rats were placed at the end of the long alley, allowed to visit the maze for 10 min, and then returned to their home cage. […] The number of visits and time spent in each arm were measured. The results were expressed as the ratio of the time spent in the initially closed novel arm, over the time spent in the previous arm, and as a ratio of the number of entries into the novel arm over the familiar one. […]

[4] = male, Wistar, po, 3 mg/kg intragastric, plasma
[5] = male, Wistar, 3 mg/kg intravenous, plasma

Sequence of serotonin transporter SERT (P31645 whole entry): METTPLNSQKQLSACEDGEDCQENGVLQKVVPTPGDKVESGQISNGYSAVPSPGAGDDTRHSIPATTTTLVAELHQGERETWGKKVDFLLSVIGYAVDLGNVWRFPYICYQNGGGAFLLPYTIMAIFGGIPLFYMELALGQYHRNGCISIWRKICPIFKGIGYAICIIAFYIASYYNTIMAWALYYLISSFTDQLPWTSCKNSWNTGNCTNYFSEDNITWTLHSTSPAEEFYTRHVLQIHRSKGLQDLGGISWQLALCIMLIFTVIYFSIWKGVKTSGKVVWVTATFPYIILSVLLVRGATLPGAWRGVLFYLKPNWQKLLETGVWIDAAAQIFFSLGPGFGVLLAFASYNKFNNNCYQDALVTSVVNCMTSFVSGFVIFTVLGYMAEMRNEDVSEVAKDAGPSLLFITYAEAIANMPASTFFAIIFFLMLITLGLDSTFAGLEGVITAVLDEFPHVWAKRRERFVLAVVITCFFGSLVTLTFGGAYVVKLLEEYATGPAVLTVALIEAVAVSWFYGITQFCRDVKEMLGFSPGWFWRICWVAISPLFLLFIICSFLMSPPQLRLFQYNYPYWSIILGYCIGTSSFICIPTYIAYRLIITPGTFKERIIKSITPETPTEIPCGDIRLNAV

For `Cl.Clc1cccc(Cn2ccc3c(N4CCNCC4)nc4ccccc4c32)c1` [PZ-1922, 1-(3-Chlorobenzyl)-4-(piperazin-1-yl)-1H-pyrrolo[3,2-c]quinoline Hydrochloride], the inhibition at 1 µM [1] was 1.8%, the MRT ([2]; male, Wistar, po, 3 mg/kg intragastric, brain) was 4.58 h and the AUC(0-t) [2, 4] was 224 ng·h/mL. The Cmax [2, 4] was 38.6 ng/mL, the Tmax [2, 4] was 2 h and the MRT [2, 4] was 3.93 h. It also gave an MRT ([2]; male, Wistar, 3 mg/kg intravenous, brain) of 2.83 h, an AUC(0-t) [2, 5] of 467 ng·h/mL and a clearance ([2]; male, Wistar, 3 mg/kg intravenous, plasma, read-out: Cl clearance) of 39.2 mL/min/kg. For the same molecule, the MRT [2, 5] was 3.48 h, the AUC0→t ([2]; 3 mg/kg intragastric, brain) was 42186 ng·min/g and the AUC0→t ([2]; 3 mg/kg intravenous, brain) was 170827 ng·min/g. It also gave an inhibition at 1 µM (dopaminergic D3R) of 31%, an inhibition at 1 µM (5-HT2AR) of 5% and an inhibition at 1 µM (5-HT2CR) of 4%. The “effect on oAβ25–35-induced memory deficits in T-maze, curative treatment” value ([3]; 1.5 mg/kg ip twice a day for 7 days, started 1 week after icv oAβ25–35) was “effectively reversed the memory deficits”, the “effect on oAβ25–35-induced memory deficits in T-maze, preventive treatment” value ([3]; 3 mg/kg/day by ip osmotic pump for 1 week, concomitant with icv oAβ25–35) was “prevented the emergence of cognitive deficits” and the “In vivo effective dose, T maze test in rats after oAB administration, preventive treatment” value ([3]; preventive treatment) was 3 mg/kg.
